# In paper PMC9405973, “Altered Conformational Landscape upon Sensing Guanine Nucleotides in a Disease Mutant of Elongation Factor-like 1 (EFL1) GTPase” (Biomolecules, 2022):
# Target: T1, Efl1 wild type in complex with Sdo1 and 60S subunits (Saccharomyces cerevisiae, UniProt P53893)
# T1 construct: made in house; host or cells: Efl1: Saccharomyces cerevisiae; Sdo1: Escherichia coli C41; 60S subunits purified from S. cerevisiae strain JD1370
# T1 sequence (P53893 1-1110): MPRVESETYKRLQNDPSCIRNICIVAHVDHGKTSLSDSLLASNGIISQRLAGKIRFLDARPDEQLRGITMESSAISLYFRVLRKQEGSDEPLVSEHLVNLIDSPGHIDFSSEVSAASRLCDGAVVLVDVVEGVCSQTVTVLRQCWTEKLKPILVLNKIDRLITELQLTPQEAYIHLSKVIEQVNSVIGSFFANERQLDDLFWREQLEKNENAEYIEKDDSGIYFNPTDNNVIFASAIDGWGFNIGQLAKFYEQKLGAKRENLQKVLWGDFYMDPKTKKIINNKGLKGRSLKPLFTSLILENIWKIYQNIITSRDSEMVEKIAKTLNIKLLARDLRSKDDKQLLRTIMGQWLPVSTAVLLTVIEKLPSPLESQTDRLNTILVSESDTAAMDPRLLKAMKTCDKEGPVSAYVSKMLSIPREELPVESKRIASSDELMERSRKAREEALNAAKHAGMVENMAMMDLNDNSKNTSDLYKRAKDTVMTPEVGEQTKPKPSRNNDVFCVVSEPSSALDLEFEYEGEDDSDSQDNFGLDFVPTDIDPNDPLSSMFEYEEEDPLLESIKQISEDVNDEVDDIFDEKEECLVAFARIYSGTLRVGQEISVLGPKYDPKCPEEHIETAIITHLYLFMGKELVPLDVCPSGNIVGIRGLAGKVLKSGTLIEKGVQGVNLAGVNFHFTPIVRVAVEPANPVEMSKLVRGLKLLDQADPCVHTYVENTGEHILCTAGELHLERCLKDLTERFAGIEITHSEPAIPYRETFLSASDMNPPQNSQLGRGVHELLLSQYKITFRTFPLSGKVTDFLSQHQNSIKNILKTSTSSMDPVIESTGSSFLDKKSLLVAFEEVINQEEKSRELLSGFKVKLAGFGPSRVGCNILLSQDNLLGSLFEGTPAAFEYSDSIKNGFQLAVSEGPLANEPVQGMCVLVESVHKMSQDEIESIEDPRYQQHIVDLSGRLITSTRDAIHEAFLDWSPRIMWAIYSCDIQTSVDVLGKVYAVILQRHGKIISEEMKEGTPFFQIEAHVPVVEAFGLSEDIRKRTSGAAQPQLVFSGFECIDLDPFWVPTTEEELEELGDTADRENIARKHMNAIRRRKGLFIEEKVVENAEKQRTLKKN
# T1 sequence (Q07953 1-250 partner): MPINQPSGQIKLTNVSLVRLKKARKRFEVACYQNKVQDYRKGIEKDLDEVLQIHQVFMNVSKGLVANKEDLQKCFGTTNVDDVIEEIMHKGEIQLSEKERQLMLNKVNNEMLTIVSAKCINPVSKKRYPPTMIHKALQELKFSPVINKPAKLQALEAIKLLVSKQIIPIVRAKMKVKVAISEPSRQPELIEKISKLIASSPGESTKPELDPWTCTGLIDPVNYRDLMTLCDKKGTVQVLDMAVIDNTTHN
# Assay: Steady state fluorescence binding of mant-GTP to Efl1 wild type in complex with Sdo1 and 60S subunits
# Details: 25 °C, one-binding-site model; read-out: dissociation constant (Kd)
# Procedure: We measured the binding of different Efl1 constructs present in complex with Sdo1 and 60S subunits to the fluorescence GTP analogue, mant-GTP, by following the increase in the fluorescence signal after excitation at 355 nm. Fluorescence intensities were plotted as a function of increasing nucleotide concentrations, and the dissociation constant (Kd) was calculated by fitting the data to a one-binding-site model (Supplementary Figure S1B).
# Hydrolysis of GTP was measured using the Enzchek Phosphate Assay kit (Molecular Probes) as described by Webb. Standard reactions consisted of 100 µL containing 6 µM of Efl1 R1086Q and Efl1 L910K, 0.3 mM MESG, 1.0 U purine nucleoside phosphorylase (PNP) and the indicated amounts of GTP. […]
# Reactions were initiated and the GTPase was added after 3 min. Time courses were followed by recording the change in absorbance at 360 nm in a Cary 60 UV -Vis spectrophotometer (Agilent Technologies). Background absorbance was recorded prior to the addition of the GTPase and subtracted from the sample signals. The slope of the measured time courses corresponded to the GTP hydrolysis rate. […] Data were analysed by nonlinear regression to the M ichaelis-Menten equation with the program Origin Version 5.0 (OriginLab, Co., Northampton, MA). […]
# Steady state fluorescence measurements […]
# Maximum emission at 440 nm was replotted as a function of nucleotide concentration and analysed
structure (smiles),measurement,value
CNc1ccccc1C(=O)O[C@H]1[C@@H](O)[C@H](n2cnc3c(=O)[nH]c(N)nc32)O[C@@H]1COP(=O)(O)OP(=O)(O)OP(=O)(O)O [mant-GTP],Kd,36 µM
